Experiments:
[1] = Thermal stability to iodine loss during the deprotection reaction; format: physicochemical; conditions: during the deprotection reaction (6M HCl, 100° C., 10 minutes), compared to MIBG
Procedure: The residue in the reactor vial was dissolved in 200 μl of 6M HCl, and heated at 100° C. for 10 minutes. The solution was allowed to cool for one minute and neutralized with 120 μl of 10M NaOH. A reverse phase (C18) sep pak was rinsed with ethanol (10 mL) and water (10 mL) and blown dry. The neutralized solution ([…]) was passed through the sep pak and the sep pak was rinsed with 2 mL of water (to elute any remaining salts) and blown dry. Ethanol (0.8 mL) was passed through the sep pak to elute the radiolabeled benzylguanidine derivative. Ethanol was removed using a stream of nitrogen before the material was purified by HPLC.
124I-2,4-difluoro-3-iodobenzylguanidine was prepared in 80±6% radiochemical yield (n=4) at the 1-2 mCi scale using the procedure outlined in Example 26. Following isolation, the product was >99% chemically and radiochemically pure, as assayed by HPLC.

[2] = Imaging (PET/CT) and biodistribution study of 124I-MIBG prepared using two methods; format: in vivo; conditions: male Sprague-Dawley rats, single intravenous dose, PET/CT scans at 1, 4, and 24 hours post injection; diaryliodonium salt precursor preparation vs conventional method (stannylated resin precursor)
Procedure: To determine whether the method of preparation of MIBG affected the biodistribution of the compound, high specific activity ^124I-MIBG was prepared using the diaryliodonium salt method (Example 27) and the conventional stannylated resin precursor; these compounds were imaged in rodent models.
Eight male Sprague-Dawley rats were used for the study. Upon arrival at the laboratory, each animal was inspected, uniquely identified with the animal number written on their tails, and weighed. The animals were judged to be in good health and were immediately placed in acclimation. Animals were between 6-14 weeks of age and weighed 440.5±36.4 g.
After a single intravenous dose of ^124I-MIBG prepared by diaryliodonium salt precursor, or ^124I-MIBG prepared with conventional method, Sprague-Dawley rats were given PET/CT scans at 1, 4, and 24 hours post injection of radiotracer. Biodistribution analysis was performed to quantify the amount of uptake in each animal's heart, liver, kidneys, thyroid, quadriceps muscle, and whole body as a function of time. Data is presented in units of μCi, μCi/mm3, % ID, and % ID/g. The radiochemical purity of all compounds as assessed by HPLC was >97% within an hour of administration.

Structure (SMILES)	thermal stability to iodine loss [1]	biodistribution (uptake in heart, liver, kidneys, thyroid, quadriceps muscle, and whole body as a function of time) [2]
N=C(N)NCc1ccc(F)c([124I])c1F [124I-2,4-difluoro-3-iodobenzylguanidine, ^124I-2,4-difluoro-3-iodobenzylguanidine]	greater thermal stability to iodine loss	–
NC(N)=NCc1cccc([124I])c1 [^124I-MIBG]	–	no noted qualitative or quantitative difference

From patent publication US10053423B2, “Radioiodinated compounds” (NUtech Ventures, priority 2014, dated 2018)
